Experimental data reported in patent publication US12303497B2, “Anti-androgens for the treatment of metastatic castration-sensitive prostate cancer” (priority 2019, dated 2025).

Tests used:
[1] = system: non-castrate hormone-sensitive and bicalutamide-resistant human prostate cancer xenograft models; details: Clegg et al. Cancer Res. 2012; cited from earlier work
OATP1B3 = OATP1B3 (Homo sapiens, UniProt Q9NPD5); experiment: In vitro transporter substrate study
patients with CRPC = experiment: Dedicated QT study (QTc interval); assay type: in vivo, human
Text: The maximum mean QTcF change from baseline was 12.4 ms (2-sided 90% upper CI. 16.0 ms).

[2] = target: organic anion transporter 3 (OAT3) (Homo sapiens, UniProt Q8TCC7); experiment: In vitro transporter inhibition
CYP2C9 = CYP2C9 (Homo sapiens, UniProt P11712); experiment: In vitro CYP inhibition
BCRP = BCRP (Homo sapiens, UniProt Q9UNQ0); experiment: In vitro transporter substrate study
CYP2C8 = target: T1, CYP2C8 (Homo sapiens, UniProt P10632); experiment: Co-administration with gemfibrozil (strong CYP2C8 inhibitor); assay type: in vivo; design: endogenous in cells; host or cells: human subjects, in vivo; details: ERLEADA 240 mg single dose with gemfibrozil
T1 sequence (P10632 1-490): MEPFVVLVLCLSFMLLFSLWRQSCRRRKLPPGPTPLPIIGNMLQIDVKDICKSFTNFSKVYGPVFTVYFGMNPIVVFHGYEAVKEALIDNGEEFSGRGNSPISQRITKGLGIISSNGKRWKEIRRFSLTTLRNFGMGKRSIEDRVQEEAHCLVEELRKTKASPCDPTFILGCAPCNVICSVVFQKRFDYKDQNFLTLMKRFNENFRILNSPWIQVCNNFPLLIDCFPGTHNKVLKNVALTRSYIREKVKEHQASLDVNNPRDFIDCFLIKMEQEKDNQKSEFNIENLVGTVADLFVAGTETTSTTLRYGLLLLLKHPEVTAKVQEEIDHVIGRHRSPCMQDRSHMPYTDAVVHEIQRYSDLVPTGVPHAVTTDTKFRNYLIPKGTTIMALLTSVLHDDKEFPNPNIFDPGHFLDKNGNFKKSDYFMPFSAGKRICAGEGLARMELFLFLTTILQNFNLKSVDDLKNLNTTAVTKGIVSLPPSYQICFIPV

[3] = Single oral administration of radiolabeled apalutamide (AUC share, excretion); assay type: in vivo
CYP3A4 = CYP3A4 (Homo sapiens, UniProt P08684); experiment: Contribution of CYP3A4 in the metabolism of apalutamide; design: endogenous in cells; host or cells: human subjects, in vivo; details: estimated
Text: Metabolism is the main route of elimination of apalutamide.

OATP1B1 = OATP1B1 (Homo sapiens, UniProt Q9Y6L6); experiment: In vitro transporter substrate study
CYP2B6 = CYP2B6 (Homo sapiens, UniProt P20813); experiment: In vitro CYP inhibition
male rats = experiment: Fertility study in male rats; assay type: in vivo, rat
[4] = system: patients with metastatic castration-sensitive prostate cancer (mCSPC); experiment: Phase 3 study (TITAN) of apalutamide plus ADT versus placebo plus ADT: efficacy; assay type: in vivo, human
Method: The data presented herein as associated with this study reflects the state of this study at the time of this filing. The study was conducted at 260 sites in 23 countries. Review boards at all participating institutions approved the study, which was conducted in accordance with current International Conference on Harmonization guidelines for Good Clinical Practice and according to Declaration of Helsinki principles. All patients provided written informed consent. An independent data-monitoring committee was commissioned by the sponsor to monitor safety and efficacy before unblinding and make study conduct recommendations. Data were transcribed by personnel at each site from source documents into sponsor-prepared electronic case report forms. Blinding of investigators, patients, study site personnel, and sponsor study team to randomization codes was maintained until study completion, independent data-monitoring committee recommendation, or individual patient medical need.
Patients were stratified by Gleason score at diagnosis (≤7 vs. >7), region (North America and European Union vs. all other countries), and prior treatment with docetaxel (yes vs. no). A Screening Phase of up to 28 days before randomization established study eligibility. Subjects will receive/received treatment in 28-day cycles during the Treatment Phase until disease progression or the occurrence of unacceptable treatment-related toxicity or the sponsor terminates the study. […] During the Follow-up Phase, data collection (every 4 months) will include survival, additional data on secondary endpoints, date and type of disease progression (radiographic, PSA, clinical or a combination) on the first subsequent therapy for prostate cancer, and subsequent therapy for prostate cancer. Data collection in follow-up will continue until the subject dies, withdraws consent, is lost to follow-up or the study is terminated by the sponsor. The Brief Pain Inventory Short Form (BPI SF), Brief Fatigue Inventory (BFI), and EQ-5D-5L patient-report outcome (PRO) measures will also continue in the Follow-up Phase up to 12 months after treatment discontinuation.
Eligible patients were required to have documented adenocarcinoma of the prostate and distant metastatic disease documented by ≥1 lesion on bone scan, with or without visceral or lymph node involvement. […] Patients were castration sensitive (i.e., patients who are not receiving ADT at the time of progression). Previous treatment for prostate cancer was limited to prior docetaxel (maximum six cycles, no evidence of progression during treatment or before randomization), ADT for ≤6 months for metastatic castration-sensitive prostate cancer or ≤3 years total duration for localized prostate cancer, one course of radiation or surgical therapy for symptoms associated with metastatic disease, and other localized treatments (e.g., radiation therapy, prostatectomy) completed ≥1 year before randomization. Patients who had received a gonadotropin-releasing hormone agonist ≤28 days before randomization were required to take a first-generation antiandrogen (i.e., biclutamide, flutamide, or nilutamide) for ≥14 days before randomization. Antiandrogen must have been discontinued before randomization. Patients with severe angina, myocardial infarction, congestive heart failure, arterial/venous thromboembolic events, history of or predisposition for seizure, or recent ventricular arrhythmias were excluded.

[5] = up to 70 days after single oral radiolabeled dose

Chain of CYP3A4 (P08684 whole entry): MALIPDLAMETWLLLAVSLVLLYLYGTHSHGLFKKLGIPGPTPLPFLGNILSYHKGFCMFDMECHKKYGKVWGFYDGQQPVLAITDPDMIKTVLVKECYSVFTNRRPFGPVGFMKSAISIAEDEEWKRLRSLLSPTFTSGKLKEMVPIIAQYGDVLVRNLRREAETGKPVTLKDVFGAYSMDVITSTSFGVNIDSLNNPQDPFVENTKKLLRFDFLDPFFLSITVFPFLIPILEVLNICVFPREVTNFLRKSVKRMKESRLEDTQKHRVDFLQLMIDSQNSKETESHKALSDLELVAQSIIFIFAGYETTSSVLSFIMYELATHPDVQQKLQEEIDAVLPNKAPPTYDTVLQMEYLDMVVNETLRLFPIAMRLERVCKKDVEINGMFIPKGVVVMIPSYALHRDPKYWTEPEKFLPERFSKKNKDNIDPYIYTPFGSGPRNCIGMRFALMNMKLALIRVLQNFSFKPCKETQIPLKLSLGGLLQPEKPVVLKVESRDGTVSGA
Chain of OATP1B1 (Q9Y6L6 whole entry): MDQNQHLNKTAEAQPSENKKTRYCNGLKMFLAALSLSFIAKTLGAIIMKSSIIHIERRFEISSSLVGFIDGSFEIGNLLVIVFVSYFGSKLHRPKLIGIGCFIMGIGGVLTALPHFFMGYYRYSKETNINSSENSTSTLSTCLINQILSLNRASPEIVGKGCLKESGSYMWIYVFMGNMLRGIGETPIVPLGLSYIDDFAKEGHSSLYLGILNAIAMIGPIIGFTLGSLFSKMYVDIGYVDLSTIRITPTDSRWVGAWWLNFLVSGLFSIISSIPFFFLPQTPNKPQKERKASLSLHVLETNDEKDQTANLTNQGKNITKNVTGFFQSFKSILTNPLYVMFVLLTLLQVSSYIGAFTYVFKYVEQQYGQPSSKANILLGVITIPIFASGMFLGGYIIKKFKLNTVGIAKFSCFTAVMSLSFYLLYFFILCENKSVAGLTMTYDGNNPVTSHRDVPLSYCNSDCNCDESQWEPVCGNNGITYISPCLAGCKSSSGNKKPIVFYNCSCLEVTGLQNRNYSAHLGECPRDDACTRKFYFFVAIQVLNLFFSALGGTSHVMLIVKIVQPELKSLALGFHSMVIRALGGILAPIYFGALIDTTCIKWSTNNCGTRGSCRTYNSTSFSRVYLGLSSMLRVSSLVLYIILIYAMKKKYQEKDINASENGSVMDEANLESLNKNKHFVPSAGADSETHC
Chain of CYP2B6 (P20813 whole entry): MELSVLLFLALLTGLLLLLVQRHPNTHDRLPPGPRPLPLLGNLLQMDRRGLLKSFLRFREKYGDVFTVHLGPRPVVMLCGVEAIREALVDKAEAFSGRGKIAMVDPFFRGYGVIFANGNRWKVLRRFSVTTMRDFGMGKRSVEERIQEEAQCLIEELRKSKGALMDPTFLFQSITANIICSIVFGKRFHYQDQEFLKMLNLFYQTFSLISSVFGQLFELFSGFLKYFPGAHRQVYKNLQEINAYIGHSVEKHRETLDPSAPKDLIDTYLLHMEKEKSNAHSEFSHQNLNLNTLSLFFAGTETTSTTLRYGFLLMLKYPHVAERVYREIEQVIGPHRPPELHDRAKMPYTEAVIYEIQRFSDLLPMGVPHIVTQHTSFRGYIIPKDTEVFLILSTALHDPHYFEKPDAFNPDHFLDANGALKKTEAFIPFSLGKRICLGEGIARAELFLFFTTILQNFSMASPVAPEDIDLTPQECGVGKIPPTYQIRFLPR
Chain of organic anion transporter 3 (OAT3) (Q8TCC7 whole entry): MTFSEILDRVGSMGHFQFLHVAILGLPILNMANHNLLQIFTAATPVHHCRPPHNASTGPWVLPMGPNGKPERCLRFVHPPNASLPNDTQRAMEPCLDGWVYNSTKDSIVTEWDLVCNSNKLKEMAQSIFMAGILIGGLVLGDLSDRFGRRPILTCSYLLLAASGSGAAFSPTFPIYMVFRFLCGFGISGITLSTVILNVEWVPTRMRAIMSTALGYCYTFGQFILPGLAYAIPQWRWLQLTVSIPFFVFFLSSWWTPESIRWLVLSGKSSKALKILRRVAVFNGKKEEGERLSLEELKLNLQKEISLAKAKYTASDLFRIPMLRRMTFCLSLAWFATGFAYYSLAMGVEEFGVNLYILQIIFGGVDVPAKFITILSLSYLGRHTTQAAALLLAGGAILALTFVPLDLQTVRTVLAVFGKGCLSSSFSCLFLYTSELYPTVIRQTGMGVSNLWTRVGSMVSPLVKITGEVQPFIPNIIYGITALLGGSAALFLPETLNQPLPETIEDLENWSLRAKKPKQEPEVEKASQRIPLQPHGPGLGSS
Chain of OATP1B3 (Q9NPD5 whole entry): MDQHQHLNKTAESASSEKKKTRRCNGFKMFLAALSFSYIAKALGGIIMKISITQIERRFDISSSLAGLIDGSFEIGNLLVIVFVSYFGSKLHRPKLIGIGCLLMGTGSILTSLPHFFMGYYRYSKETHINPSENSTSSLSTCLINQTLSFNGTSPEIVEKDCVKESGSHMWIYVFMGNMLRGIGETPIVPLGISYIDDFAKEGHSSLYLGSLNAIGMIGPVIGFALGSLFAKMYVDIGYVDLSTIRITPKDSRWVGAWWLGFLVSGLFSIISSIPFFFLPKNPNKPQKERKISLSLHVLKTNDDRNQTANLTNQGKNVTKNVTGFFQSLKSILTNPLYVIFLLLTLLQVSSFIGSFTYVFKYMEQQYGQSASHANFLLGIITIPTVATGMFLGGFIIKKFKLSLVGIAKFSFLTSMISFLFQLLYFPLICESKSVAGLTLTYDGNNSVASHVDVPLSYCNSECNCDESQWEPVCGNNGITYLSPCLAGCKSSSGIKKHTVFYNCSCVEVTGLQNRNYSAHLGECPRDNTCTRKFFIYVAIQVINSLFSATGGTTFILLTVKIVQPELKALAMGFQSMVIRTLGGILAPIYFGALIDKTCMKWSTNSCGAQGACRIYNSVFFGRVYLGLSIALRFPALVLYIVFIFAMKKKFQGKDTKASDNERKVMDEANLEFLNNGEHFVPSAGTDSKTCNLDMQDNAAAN
Chain of CYP2C9 (P11712 whole entry): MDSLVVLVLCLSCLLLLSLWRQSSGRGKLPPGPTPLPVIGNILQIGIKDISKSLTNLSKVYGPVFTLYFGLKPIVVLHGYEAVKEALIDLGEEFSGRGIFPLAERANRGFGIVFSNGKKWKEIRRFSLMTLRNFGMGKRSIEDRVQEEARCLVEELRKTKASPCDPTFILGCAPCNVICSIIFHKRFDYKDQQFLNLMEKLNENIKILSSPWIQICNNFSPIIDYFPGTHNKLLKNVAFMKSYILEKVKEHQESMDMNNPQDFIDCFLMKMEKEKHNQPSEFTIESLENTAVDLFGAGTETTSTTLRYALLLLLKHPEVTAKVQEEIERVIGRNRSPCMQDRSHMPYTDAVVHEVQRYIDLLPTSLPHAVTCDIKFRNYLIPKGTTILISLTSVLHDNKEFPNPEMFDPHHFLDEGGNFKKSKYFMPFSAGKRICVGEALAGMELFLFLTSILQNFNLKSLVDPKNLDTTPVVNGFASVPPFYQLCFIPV
Chain of BCRP (Q9UNQ0 whole entry): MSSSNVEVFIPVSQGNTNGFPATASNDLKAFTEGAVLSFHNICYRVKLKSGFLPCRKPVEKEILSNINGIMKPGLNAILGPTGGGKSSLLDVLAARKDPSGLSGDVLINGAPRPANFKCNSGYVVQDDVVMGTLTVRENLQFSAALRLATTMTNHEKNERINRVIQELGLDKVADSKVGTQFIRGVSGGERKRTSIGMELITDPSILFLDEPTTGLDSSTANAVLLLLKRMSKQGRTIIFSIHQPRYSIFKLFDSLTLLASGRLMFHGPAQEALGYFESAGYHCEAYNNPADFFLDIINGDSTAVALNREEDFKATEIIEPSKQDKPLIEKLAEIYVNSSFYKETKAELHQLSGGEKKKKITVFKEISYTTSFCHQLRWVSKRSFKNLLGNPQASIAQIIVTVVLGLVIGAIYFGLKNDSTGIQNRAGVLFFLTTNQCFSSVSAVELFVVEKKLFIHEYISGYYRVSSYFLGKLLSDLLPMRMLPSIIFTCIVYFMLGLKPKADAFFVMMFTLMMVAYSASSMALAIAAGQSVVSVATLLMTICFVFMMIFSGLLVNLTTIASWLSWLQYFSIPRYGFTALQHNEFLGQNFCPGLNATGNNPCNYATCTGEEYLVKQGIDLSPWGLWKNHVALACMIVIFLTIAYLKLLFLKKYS

CNC(=O)c1ccc(N2C(=S)N(c3cnc(C#N)c(C(F)(F)F)c3)C(=O)C23CCC3)cc1F [Apalutamide, 4-[7-(6-cyano-5-trifluoromethylpyridin-3-yl)-8-oxo-6-thioxo-5,7-diazaspiro[3.4]oct-5-yl]-2-fluoro-N-methylbenzamide]
Tumor response [1]: partial or complete tumor regression
Substrate for OATP1B3 (OATP1B3): not
Maximum mean QTcF change from baseline (patients with CRPC; apalutamide 240 mg once daily, 45 patients with CRPC, 2-sided 90% upper CI 16.0 ms): 12.4 ms
Exposure-QT analysis (patients with CRPC; in vivo): concentration-dependent increase in QTcF
Inhibition of OAT3 [2]: inhibit
CYP2C9 inhibition (CYP2C9): weak inhibitors
Substrate for BCRP (BCRP): not
Apalutamide AUC increase (CYP2C8): 68%
Apalutamide Cmax decrease (CYP2C8): 21%
Share of the total AUC ([3]; single oral radiolabeled apalutamide 240 mg): 45%
Dose recovered in feces [3, 5]: 24%
Dose recovered in feces as this compound [3, 5]: 1.5%
Dose recovered in urine [3, 5]: 65%
Dose recovered in urine as this compound [3, 5]: 1.2%
Contribution of CYP3A4 in the metabolism of apalutamide (CYP3A4; at steady-state): 37%
Contribution of CYP3A4 in the metabolism of apalutamide (CYP3A4; following single dose): 13%
Substrate for OATP1B1 (OATP1B1): not
CYP2B6 inhibition (CYP2B6): moderate inhibitors
Dose at which a reduced number of live fetuses due to increased pre- and/or post-implantation loss was observed (male rats; 4 weeks of administration): 150 mg/kg/day
Dose at which decreased sperm concentration and motility, abnormal sperm morphology, lower copulation and fertility rates, reduced secondary sex gland and epididymis weights were observed (male rats; 4 weeks of dosing): ≥ 25 mg/kg/day
Time after last administration at which effects on male rats were reversible (male rats; rat, in vivo): 8 weeks
Treatment discontinuations as the result of progressive disease ([4]; 99 patients): 19%
Deaths at cutoff for the first interim analysis ([4]; 525 patients randomized): 83
Radiographic progression events ([4]; 525 patients randomized): 134
Median radiographic progression-free survival ([4]; final analysis for rPFS): not reached
Overall survival, 24-month event-free rate ([4]; in vivo): 82%
Patients in whom PSA reached undetectable levels (PSA<0.2 ng per ml) ([4]; in vivo): 68%
Radiographic progression-free survival, 24-month event-free rate ([4]; in vivo): 68%
Change in FACT-P from baseline (health-related quality of life) ([4]; mixed-effect repeated measures model): maintained health-related quality of life and no between-group difference
Patients who discontinued because of disease progression ([4]; n = 525): 99 (18.9) no. (%)
Reduction in risk of death ([4]; vs placebo + ADT): 33%
Reduction in risk of radiographic progression or death ([4]; vs placebo + ADT): 52%
